Data taken from US10273233B2, “Inhibitors of influenza viruses replication” (Vertex Pharmaceuticals Incorporated, priority 2015, dated 2019).

Columns and labels:
[1] = system: A/WS/33; assay: 3-day CP assay in MDCK cells; assay type: cell-based; settings: Influenza A virus
[2] = system: A/NWS/33; assay: 3-day CP assay in MDCK cells; assay type: cell-based, influenza A; settings: Influenza A virus, MDCK
[3] = system: A/Puerto Rico/8/34; assay: 3-day CP assay in MDCK cells; assay type: cell-based; settings: Influenza A virus
[4] = system: A/Weiss/43; assay: 3-day CP assay in MDCK cells; assay type: cell-based; settings: Influenza A virus
[5] = system: A/FM/1/47; assay: 3-day CP assay in MDCK cells; assay type: cell-based; settings: Influenza A virus
[6] = system: A/Mal/302/54; assay: 3-day CP assay in MDCK cells; assay type: cell-based; settings: Influenza A virus
[7] = system: A/Denver/1/57; assay: 3-day CP assay in MDCK cells; assay type: cell-based; settings: Influenza A virus
[8] = system: A/Aichi/2/68; assay: 3-day CP assay in MDCK cells; assay type: cell-based; settings: Influenza A virus
[9] = system: A/Hong Kong/8/68; assay: 3-day CP assay in MDCK cells; assay type: cell-based; settings: Influenza A virus
[10] = system: A/Port Chalmers/1/73; assay: 3-day CP assay in MDCK cells; assay type: cell-based; settings: Influenza A virus
[11] = system: A/Victoria/3/75; assay: 3-day CP assay in MDCK cells; assay type: cell-based; settings: Influenza A virus
[12] = system: A/New Jersey/8/76; assay: microbe, parasite or virus in culture; assay type: cell-based; settings: Influenza A virus, MDCK
[13] = system: A/Wisconsin/67/2005; assay: 3-day CP assay in MDCK cells; assay type: cell-based; settings: Influenza A virus
[14] = system: A/Chelyabinsk/1/200; assay: 3-day CP assay in MDCK cells; assay type: cell-based; settings: Influenza A virus
[15] = system: A/Fukushima/141/2006; assay: 3-day CP assay in MDCK cells; assay type: cell-based; settings: Influenza A virus
[16] = system: A/Georgia/17/2006; assay: 3-day CP assay in MDCK cells; assay type: cell-based; settings: Influenza A virus
[17] = system: A/Georgia/20/2006; assay: 3-day CP assay in MDCK cells; assay type: cell-based, influenza A; settings: Influenza A virus, MDCK
[18] = system: A/Hawaii/2/2006; assay: 3-day CP assay in MDCK cells; assay type: cell-based; settings: Influenza A virus
[19] = system: A/Missouri/3/2006; assay: 3-day CP assay in MDCK cells; assay type: cell-based; settings: Influenza A virus
[20] = system: A/Nebraska/1/2006; assay: 3-day CP assay in MDCK cells; assay type: cell-based; settings: Influenza A virus
[21] = system: A/Santiago/7981/2006; assay: 3-day CP assay in MDCK cells; assay type: cell-based; settings: Influenza A virus
[22] = system: A/St. Petersburg8/2006; assay: 3-day CP assay in MDCK cells; assay type: cell-based; settings: Influenza A virus
[23] = system: A/Virginia/01/2006; assay: 3-day CP assay in MDCK cells; assay type: cell-based; settings: Influenza A virus
[24] = system: A/Cambodia0371/2007; assay: 3-day CP assay in MDCK cells; assay type: cell-based; settings: Influenza A virus
[25] = system: A/Henan/Jinshui/147/2007; assay: 3-day CP assay in MDCK cells; assay type: cell-based; settings: Influenza A virus
[26] = system: A/South Dakota/6/2007; assay: 3-day CP assay in MDCK cells; assay type: cell-based; settings: Influenza A virus
[27] = system: A/Texas/12/2007; assay: 3-day CP assay in MDCK cells; assay type: cell-based; settings: Influenza A virus
[28] = system: A/Uruguay/716/2007; assay: 3-day CP assay in MDCK cells; assay type: cell-based; settings: Influenza A virus
[29] = system: A/California/07/2009; assay: 3-day CP assay in MDCK cells; assay type: cell-based; settings: Influenza A virus, MDCK; A/California/07/2009
[30] = system: A/California/07/2009 NYMC, X-179A; assay: 3-day CP assay in MDCK cells; assay type: cell-based; settings: Influenza A virus
[31] = system: A/Mexico/4108/2009; assay: 3-day CP assay in MDCK cells; assay type: cell-based; settings: Influenza A virus
[32] = system: A/New York/18/2009; assay: 3-day CP assay in MDCK cells; assay type: cell-based; settings: Influenza A virus
[33] = system: A/Texas/48/2009; assay: 3-day CP assay in MDCK cells; assay type: cell-based; settings: Influenza A virus
[34] = system: A/Virginia/ATCC2/2009; assay: 3-day CP assay in MDCK cells; assay type: cell-based; settings: Influenza A virus
[35] = system: A/Virginia/ATCC3/2009; assay: 3-day CP assay in MDCK cells; assay type: cell-based; settings: Influenza A virus
[36] = system: A/Swine/Iowa/15/30; assay: microbe, parasite or virus in culture; assay type: cell-based, influenza A; settings: Influenza A virus, MDCK, in Sus scrofa
[37] = system: A/Swine/1976/31; assay: microbe, parasite or virus in culture; assay type: cell-based; settings: Influenza A virus, MDCK, in Sus scrofa
[38] = system: A/Equine/Miami/63; assay: microbe, parasite or virus in culture; assay type: cell-based; settings: Influenza A virus, MDCK
[39] = system: B/Lee/40; assay: 3-day CP assay in MDCK cells; assay type: cell-based; settings: Influenza B virus
[40] = system: B/Russia/69; assay: 3-day CP assay in MDCK cells; assay type: cell-based; settings: Influenza B virus
[41] = system: B/Memphis/20/1996--070; assay: 3-day CP assay in MDCK cells; assay type: cell-based; settings: Influenza B virus
[42] = system: B/Memphis/20/1996--071; assay: 3-day CP assay in MDCK cells; assay type: cell-based; settings: Influenza B virus

Work on `CC(=O)N[C@H]1[C@H]([C@H](O)[C@H](O)CO)OC(C(=O)O)=C[C@@H]1N=C(N)N` [Zanamivir] yielded an EC50 [1] greater than 10 µM, an EC50 [2] greater than 10 µM and an EC50 [3] greater than 10 µM. The EC50 [4] was 0.08 µM, the EC50 [5] was 2.6 µM and the EC50 [6] was 0.28 µM. The EC50 [7] was greater than 10 µM, the EC50 [8] was greater than 10 µM and the EC50 [9] was 0.15 µM. The EC50 [10] was 0.67 µM, the EC50 [11] was 4.1 µM and the EC50 [12] was 6.2 µM. For the same compound, the EC50 [13] was 0.16 µM, the EC50 [14] was 7.6 µM and the EC50 [15] was 0.27 µM. It also gave an EC50 [16] greater than 10 µM, an EC50 [17] of 4.3 µM and an EC50 [18] greater than 10 µM. It also gave an EC50 [19] of 3.6 µM, an EC50 [20] greater than 10 µM and an EC50 [21] of 4 µM. The EC50 [22] was 6 µM, the EC50 [23] was 0.83 µM and the EC50 [24] was 2.1 µM. For the same compound, the EC50 [25] was greater than 10 µM, the EC50 [26] was 3.4 µM and the EC50 [27] was 8.2 µM. The EC50 [28] was 4.7 µM, the EC50 [29] was greater than 10 µM and the EC50 [30] was 5.6 µM. For the same compound, the EC50 [31] was 3.8 µM, the EC50 [32] was 0.31 µM and the EC50 [33] was 1.7 µM. For the same compound, the EC50 [34] was greater than 10 µM, the EC50 [35] was greater than 10 µM and the EC50 [36] was 1.8 µM. It also gave an EC50 [37] of 0.25 µM, an EC50 [38] of 0.93 µM and an EC50 [39] greater than 10 µM. It also gave an EC50 [40] of 3.1 µM, an EC50 [41] of 2.6 µM and an EC50 [42] of 6 µM.
